Reference: publication PMC9228641 (Journal of medicinal chemistry, 2021)
Read-outs that look alike come from different tables or passages of the source.

Legend:
[1] = tested on: WT HCV Con1 (GT-1b) reporter replicon containing the H77 (GT-1a) NS3 protease region; assay: Antiviral replicon assay, WT HCV; type: cell-based, Hepatitis C virus; conditions: for fold improvement in antiviral activity against WT HCV: more active, relative to 36
[2] = tested on: HCV replicon D168A variant; assay: microbe, parasite or virus in culture; conditions: Hepatitis C virus, Huh-7, 96 h, read-out: EC50 against D168A variant
[3] = tested on: HCV replicon D168A variant
[4] = tested on: GT-3a NS3/4A protease; assay: Enzyme inhibition assay; type: biochemical, Hepatitis C virus; conditions: relative to 12
[5] = tested on: HCV GT-3a replicon, S52/SG-Feo SHI; conditions: relative to 12
[6] = tested on: HCV replicons; assay: Replicon assays, variant not given; type: cell-based, Hepatitis C virus; conditions: more potent than 38
[7] = less active, compared to the (S)-stereoisomer 30

COc1ccc2nc(C)c(O[C@@H]3C[C@H]4C(=O)N[C@]5(C(=O)NS(=O)(=O)C6(C)CC6)C[C@H]5C=CCCCCC[C@H](NC(=O)OC(C)(C)C(F)(F)F)C(=O)N4C3)nc2c1 (stereo in doubt) [Compound 12, 1,1,1-Trifluoro-2-methylpropan-2-yl ((2R,6S,13aS,14aR,16aS,Z)-2-((7-methoxy-3-methylquinoxalin-2-yl)oxy)-14a-(((1-methylcyclopropyl)sulfonyl)carbamoyl)-5,16-dioxo-1,2,3,5,6,7,8,9,10,11,13a,14,14a,15,16,16a-hexadecahydrocyclopropa[e]pyrrolo[1,2-a][1,4]diazacyclopentadecin-6-yl)carbamate]
EC50 ([1]; Hepatitis C virus, GT1A|GT1B, Huh-7, 96 h, read-out: EC50 against WT HCV): < 5 nM | EC50 [2]: < 5 nM

COc1ccc2nc(C)c(O[C@@H]3C[C@H]4C(=O)N[C@]5(C(=O)NS(=O)(=O)C6(C)CC6)C[C@H]5C=CCCCCC[C@H](NC(=O)O[C@@H](C)C(F)(F)F)C(=O)N4C3)nc2c1 (stereo in doubt) [Compound 13, (S)-1,1,1-Trifluoropropan-2-yl ((2R,6S,13aS,14aR,16aS,Z)-2-((7-methoxy-3-methylquinoxalin-2-yl)oxy)-14a-(((1-methylcyclopropyl)sulfonyl)carbamoyl)-5,16-dioxo1,2,3,5,6,7,8,9,10,11,13a,14,14a,15,16,16a-hexadecahydrocyclopropa[e]pyrrolo[1,2-a][1,4]diazacyclopentadecin-6-yl)carbamate]
EC50 [2]: < 10 nM

COc1ccc2nc(C)c(O[C@@H]3C[C@H]4C(=O)N[C@]5(C(=O)NS(=O)(=O)C6(C)CC6)C[C@H]5C=CCCCCC[C@H](NC(=O)O[C@H](C)C(F)(F)F)C(=O)N4C3)nc2c1 (stereo in doubt) [Compound 14, (R)-1,1,1-Trifluoropropan-2-yl ((2R,6S,13aS,14aR,16aS,Z)-2-((7-methoxy-3-methylquinoxalin-2-yl)oxy)-14a-(((1-methylcyclopropyl)sulfonyl)carbamoyl)-5,16-dioxo-1,2,3,5,6,7,8,9,10,11,13a,14,14a,15,16,16a-hexadecahydrocyclopropa[e]pyrrolo[1,2-a][1,4]diazacyclopentadecin-6-yl)carbamate]
fold better potency against the D168A variant ([3]; relative to 13): 2 fold

COc1ccc2nc(C)c(O[C@@H]3C[C@H]4C(=O)N[C@]5(C(=O)NS(=O)(=O)C6(C)CC6)C[C@H]5C=CCCCCC[C@H](NC(=O)OCC5(C(F)(F)F)CC5)C(=O)N4C3)nc2c1 (stereo in doubt) [Compound 15, (1-(Trifluoromethyl)cyclopropyl)methyl ((2R,6S,13aS,14aR,16aS,Z)-2-((7-methoxy-3-methylquinoxalin-2-yl)oxy)-14a-(((1-methylcyclopropyl)sulfonyl)carbamoyl)-5,16-dioxo-1,2,3,5,6,7,8,9,10,11,13a,14,14a,15,16,16a-hexadecahydrocyclopropa[e]pyrrolo[1,2-a][1,4]diazacyclopentadecin-6-yl)carbamate]
fold lower activity against GT-3a, enzyme assay [4]: 2 fold | fold lower activity against GT-3a, replicon assay [5]: 2 fold

COc1ccc2nc(C)c(O[C@@H]3C[C@H]4C(=O)N[C@]5(C(=O)NS(=O)(=O)C6(C)CC6)C[C@H]5C=CCCCCC[C@H](NC(=O)OC5(C(F)(F)F)CCCC5)C(=O)N4C3)nc2c1 (stereo in doubt) [Compound 24, 1-(Trifluoromethyl)cyclopentyl ((2R,6S,13aS,14aR,16aS,Z)-2-((7-methoxy-3-methylquinoxalin-2-yl)oxy)-14a-(((1-methylcyclopropyl)sulfonyl)carbamoyl)-5,16-dioxo-1,2,3,5,6,7,8,9,10,11,13a,14,14a,15,16,16a-hexadecahydrocyclopropa[e]pyrrolo[1,2-a][1,4]diazacyclopentadecin-6-yl)carbamate]
fold improvement in potency against the D168A variant, replicon assay ([3]; improvement, relative to the parent 18): 2 fold

CCC(C)(C)OC(=O)N[C@H]1CCCCCC=C[C@@H]2C[C@@]2(C(=O)NS(=O)(=O)C2(C)CC2)NC(=O)[C@@H]2C[C@@H](Oc3nc4ccc(OC)cc4nc3C(F)(F)F)CN2C1=O (stereo in doubt) [Compound 28, tert-Pentyl ((2R,6S,13aS,14aR,16aS,Z)-2-((6-methoxy-3-(trifluoromethyl)quinoxalin-2-yl)oxy)-14a-(((1-methylcyclopropyl)sulfonyl)carbamoyl)-5,16-dioxo-1,2,3,5,6,7,8,9,10,11,13a,14,14a,15,16,16a-hexadecahydrocyclopropa[e]pyrrolo[1,2-a][1,4]diazacyclopentadecin-6-yl)carbamate]
fold lower antiviral activity against the D168A variant ([3]; lower, relative to 3): 2 fold

COc1ccc2nc(O[C@@H]3C[C@H]4C(=O)N[C@]5(C(=O)NS(=O)(=O)C6(C)CC6)C[C@H]5C=CCCCCC[C@H](NC(=O)O[C@H](C)C(C)C)C(=O)N4C3)c(C(F)(F)F)nc2c1 (stereo in doubt) [Compound 31, (R)-3-Methylbutan-2-yl ((2R,6S,13aS,14aR,16aS,Z)-2-((6-methoxy-3-(trifluoromethyl)quinoxalin-2-yl)oxy)-14a-(((1-methylcyclopropyl)sulfonyl)carbamoyl)-5,16-dioxo-1,2,3,5,6,7,8,9,10,11,13a,14,14a,15,16,16a-hexadecahydrocyclopropa[e]pyrrolo[1,2-a][1,4]diazacyclopentadecin-6-yl)carbamate]
fold less active against WT replicon [1, 7]: 2 fold | fold less active against D168A replicon [3, 7]: 2 fold

COc1ccc2nc(O[C@@H]3C[C@H]4C(=O)N[C@]5(C(=O)NS(=O)(=O)C6(C)CC6)C[C@H]5C=CCCCCC[C@H](NC(=O)O[C@H](C)C(F)(F)F)C(=O)N4C3)c(C(F)(F)F)nc2c1 (stereo in doubt) [Compound 39, (R)-1,1,1-Trifluoropropan-2-yl ((2R,6S,13aS,14aR,16aS,Z)-2-((6-methoxy-3-(trifluoromethyl)quinoxalin-2-yl)oxy)-14a-(((1-methylcyclopropyl)sulfonyl)carbamoyl)-5,16-dioxo-1,2,3,5,6,7,8,9,10,11,13a,14,14a,15,16,16a-hexadecahydrocyclopropa[e]pyrrolo[1,2-a][1,4]diazacyclopentadecin-6-yl)carbamate]
fold more potent in replicon assays [6]: at least 2 fold

COc1ccc2nc(O[C@@H]3C[C@H]4C(=O)N[C@]5(C(=O)NS(=O)(=O)C6(C)CC6)C[C@H]5C=CCCCCC[C@H](NC(=O)OCC5(C(F)(F)F)CC5)C(=O)N4C3)c(C(F)(F)F)nc2c1 (stereo in doubt) [Compound 40, (1-(Trifluoromethyl)cyclopropyl)methyl ((2R,6S,13aS,14aR,16aS,Z)-2-((6-methoxy-3-(trifluoromethyl)quinoxalin-2-yl)oxy)-14a-(((1-methylcyclopropyl)sulfonyl)carbamoyl)-5,16-dioxo-1,2,3,5,6,7,8,9,10,11,13a,14,14a,15,16,16a-hexadecahydrocyclopropa[e]pyrrolo[1,2-a][1,4]diazacyclopentadecin-6-yl)carbamate]
fold improvement in antiviral activity against WT HCV [1]: 2 fold | fold more active against the D168A variant ([3]; more active, relative to 36): 2 fold

COc1ccc2nc(O[C@@H]3C[C@H]4C(=O)N[C@]5(C(=O)NS(=O)(=O)C6(C)CC6)C[C@H]5C=CCCCCC[C@H](NC(=O)OCC5(C)CC5(F)F)C(=O)N4C3)c(C(F)(F)F)nc2c1 (stereo in doubt) [Compound 41, (2,2-Difluoro-1-methylcyclopropyl)methyl ((2R,6S,13aS,14aR,16aS,Z)-2-((6-methoxy-3-(trifluoromethyl)quinoxalin-2-yl)oxy)-14a-(((1-methylcyclopropyl)sulfonyl)carbamoyl)-5,16-dioxo-1,2,3,5,6,7,8,9,10,11,13a,14,14a,15,16,16a-hexadecahydrocyclopropa[e]pyrrolo[1,2-a][1,4]diazacyclopentadecin-6-yl)carbamate]
fold improvement in antiviral activity against WT HCV [1]: 2 fold

COc1ccc2nc(O[C@@H]3C[C@H]4C(=O)N[C@]5(C(=O)NS(=O)(=O)C6(C)CC6)C[C@H]5C=CCCCCC[C@H](NC(=O)OC5(C(F)(F)F)CCCC5)C(=O)N4C3)c(C(F)(F)F)nc2c1 (stereo in doubt) [Compound 48, 1-(Trifluoromethyl)cyclopentyl ((2R,6S,13aS,14aR,16aS,Z)-2-((6-methoxy-3-(trifluoromethyl)quinoxalin-2-yl)oxy)-14a-(((1-methylcyclopropyl)sulfonyl)carbamoyl)-5,16-dioxo-1,2,3,5,6,7,8,9,10,11,13a,14,14a,15,16,16a-hexadecahydrocyclopropa[e]pyrrolo[1,2-a][1,4]diazacyclopentadecin-6-yl)carbamate]
fold better potency against the D168A variant ([3]; compared to 42): 3 fold

COc1ccc2nc(C)c(O[C@@H]3C[C@H]4C(=O)N[C@]5(C(=O)NS(=O)(=O)C6(C)CC6)C[C@H]5/C=C/CCCCC[C@H](NC(=O)OC5C[C@@H]6C[C@@H]6C5)C(=O)N4C3)nc2c1 (some centres unmarked) [Compound 20]
EC50 [2]: 0.5 nM

COc1ccc2nc(C)c(O[C@@H]3C[C@H]4C(=O)N[C@]5(C(=O)NS(=O)(=O)C6(C)CC6)C[C@H]5/C=C/CCCCC[C@H](NC(=O)OC5CCC5)C(=O)N4C3)nc2c1 [Compound 21]
EC50 [2]: < 5 nM
